Reference: patent US9951058B2, “Compound, pharmaceutically acceptable salt or optical isomer thereof, method for preparing the same, and pharmaceutical composition for prevention or treatment of viral diseases containing same as active ingredient” (Korea Research Institute of Chemical Technology, priority 2012, dated 2018)
Converted amounts (≈) assume the structure as drawn.

Key:
HRV 14 = assay: Cytopathic effect (CPE) inhibition assay; assay type: cell-based, human rhinovirus; details: Human rhinovirus sp., HeLa, 72 h, host cell HeLa, 3 days, MEM/2% FBS, MTT assay; read-out: EC50 HRV 14
HRV 21 = assay: Cytopathic effect (CPE) inhibition assay; assay type: cell-based, human rhinovirus; details: Human rhinovirus sp., 72 h; host cell HeLa, 3 days, MEM/2% FBS, MTT assay; read-out: EC50 HRV 21
HRV 71 = assay: Cytopathic effect (CPE) inhibition assay; assay type: cell-based, human rhinovirus; details: Human rhinovirus sp., 72 h; host cell HeLa, 3 days, MEM/2% FBS, MTT assay; read-out: EC50 HRV 71
[1] = system: coxsackievirus B1 (Cox B1); assay: Multicycle cytopathic effect (CPE) reduction assay; assay type: cell-based; details: Enterovirus B, B1, 72 h, read-out: EC50 CoxB1
[2] = system: coxsackievirus B3 (Cox B3); assay: Multicycle cytopathic effect (CPE) reduction assay; assay type: cell-based; details: Enterovirus B, B3, 72 h, read-out: EC50 CoxB3
poliovirus 3 (PV3) = assay: microbe, parasite or virus in culture; assay type: cell-based; details: Enterovirus C, 72 h, read-out: EC50 PV3
in vitro = details: human
[3] = Cytotoxicity (CC50) in multicycle CPE reduction assay, MTS; details: human

SMILES	EC50 (HRV 14) [µg/mL]	EC50 (HRV 21) [µg/mL]	EC50 (HRV 71) [µg/mL]	EC50 [1] [µg/mL]	EC50 [2] [µg/mL]	EC50 (poliovirus 3 (PV3)) [µg/mL]	CC50 (in vitro) [µg/mL]	CC50 at 3 days [3] [µg/mL]
CC(C)c1ccc2c(c1)OC1(O)c3ccccc3C(=O)C21NC(=O)CNC(=O)OC(C)(C)C (stereo not drawn) [Example 63, tert-butyl (2-((4b-hydroxy-7-isopropyl-10-oxo-4b, 10-dihydro-9bH-indeno[1,2-b]benzofuran-9b-yl)amino)-2-oxoethyl)carbamate]	< 1	> 10	> 10	< 0.1	< 0.1	< 10	> 10	> 10
CCCC(=O)C(=O)NC12C(=O)c3ccccc3C1(O)Oc1cc(C(C)C)ccc12 (stereo not drawn) [Example 5, N-(4b-hydroxy-7-isopropyl-10-oxo-9b, 10-dihydro-4bH-indeno[1,2-b]benzofuran-9b-yl)-2-oxo pentanamide]	< 0.1	> 8.49	> 8.49	< 0.01	< 0.01	< 0.1	8.49 (≈ 21.6 µM)	> 10
CC(C)CC(=O)C(=O)NC12C(=O)c3cccc([N+](=O)[O-])c3C1(O)Oc1cc(C(C)C)ccc12 (stereo not drawn) [Example 38, N-(4b hydroxyl-7-isopropyl-4-nitro-10-oxo-4b, 10-dihydro-9bH-indeno[1,2-b]benzofuran-9b-yl)-4-methyl-2-oxo pentanamide]	< 10	> 10	> 10	< 1	< 1	< 10	> 10	> 10
CC(=O)C(=O)NC12C(=O)c3ccccc3C1(O)Oc1cc(C)c(C)cc12 (stereo not drawn) [Example 14, N-(4b-hydroxy-7,8-dimethyl-10-oxo-9b, 10-dihydro-4bH-indeno[1,2-b]benzofuran-9b-yl)-2-oxo propanamide]	1.82 (≈ 5.18 µM)	> 8.87	> 8.87	0.015 (≈ 0.0427 µM)	0.067 (≈ 0.191 µM)	> 8.57	8.87 (≈ 25.2 µM)	8.57 (≈ 24.4 µM)
CC(C)c1ccc2c(c1)OC1(O)c3ccccc3C(=O)C21N/C(=N\C(=O)OC(C)(C)C)NC(=O)OC(C)(C)C (stereo not drawn) [Example 55]	< 10	> 10	> 10	< 1	< 1	> 10	> 10	> 10
CC(C)c1ccc2c(c1)OC1(O)c3ccccc3C(=O)C21NC(=O)C(=O)CCc1ccccc1 (stereo not drawn) [Example 39, N-(4b-hydroxy-7-isopropyl-10-oxo-4b, 10-dihydro-9bH-indeno[1,2-b]benzofuran-9b-yl)-2-oxo-4-phenyl butanamide]	< 10	> 9.5	> 9.5	< 0.1	< 0.1	< 10	9.5 (≈ 20.9 µM)	> 10
CC(C)c1ccc2c(c1)OC1(O)c3ccccc3C(=O)C21NC(=O)C(=O)Cc1ccccc1[N+](=O)[O-] (stereo not drawn) [Example 3, N-(4b-hydroxy-7-isopropyl-10-oxo-9b, 10-dihydro-4bH-indeno[1,2-b]benzofuran-9b-yl)-3-(2-nitrophenyl)-2-oxo propanamide]	> 1.76	> 1.76	> 1.76	0.013 (≈ 0.0267 µM)	0.015 (≈ 0.0308 µM)	< 1	1.76 (≈ 3.62 µM)	2.38 (≈ 4.89 µM)
CC(C)c1ccc2c(c1)OC1(O)c3ccccc3C(=O)C21NC(=O)CCC(=O)O (stereo not drawn) [Example 43]	> 10	> 10	> 10	< 1	< 1	> 10	> 10	> 10
COc1ccc(/C=C/C(=O)C(=O)NC23C(=O)c4ccccc4C2(O)Oc2cc(C(C)C)ccc23)cc1OC (stereo not drawn) [Example 24, (E)-4-(3,4-dimethoxyphenyl)-N-(4b-hydroxy-7-isopropyl-10-oxo-4b, 10-dihydro-9bH-indeno[1,2-b]benzofuran-9b-yl)-2-oxobut-3-enamide]	< 10	> 10	> 10	< 0.1	< 0.1	< 10	> 10	> 10
Cc1cc(C)c(C(=O)C(=O)NC23C(=O)c4cccc([N+](=O)[O-])c4C2(O)Oc2cc(C(C)C)ccc23)c(C)c1 (stereo not drawn) [Example 51]	> 10	> 10	> 10	< 10	< 10	> 10	> 10	> 10
CNC(=O)C(=O)NC12C(=O)c3ccccc3C1(O)Oc1cc(C(C)C)ccc12 (stereo not drawn) [Example 27, N1-(4b-hydroxy-7-isopropyl-10-oxo-4b, 10-dihydro-9bH-indeno[1,2-b]benzofuran-9b-yl)-N2-methyl oxal amide]	< 1	> 10	> 10	< 0.1	< 0.1	< 10	> 10	> 10
CC(C)c1ccc2c(c1)OC1(O)c3ccccc3C(=O)C21NC(=O)C(=O)c1ccco1 (stereo not drawn) [Example 7, 2-(furan-2-yl)-N-(4b-hydroxy-7-isopropyl-10-oxo-9b, 10-dihydro-4bH-indeno[1,2-b]benzofuran-9b-yl)-2-oxo acetamide]	< 0.1	> 10	> 10	< 0.01	< 0.01	< 1	> 10	> 10
CC(=O)C(=O)NC12C(=O)c3c(N)cccc3C1(O)Oc1cc(C(C)C)ccc12 (stereo not drawn) [Example 22, N-(1-amino-4b-hydroxy-7-isopropyl-10-oxo-4b, 10-dihydro-9bH-indeno[1,2-b]benzofuran-9b-yl)-2-oxo propanamide]	< 0.01	< 10	8.5 (≈ 22.3 µM)	< 0.01	< 0.01	< 0.1	> 10	> 10
CCOC(=O)C(=O)NC12C(=O)c3c(N)cccc3C1(O)Oc1cc(C(C)C)ccc12 (stereo not drawn) [Example 36, Ethyl 2-((1-amino-4b-hydroxy-7-isopropyl-10-oxo-4b, 10-dihydro-9bH-indeno[1,2-b]benzofuran-9b-yl)amino)-2-oxo acetate]	< 1	> 10	> 10	< 0.1	< 0.1	< 10	> 10	> 10
COc1cc(C(=O)C(=O)NC23C(=O)c4ccccc4C2(O)Oc2cc(C(C)C)ccc23)cc(OC)c1OC (stereo not drawn) [Example 23, N-(4b-hydroxy-7-isopropyl-10-oxo-4b, 10-dihydro-9bH-indeno[1,2-b]benzofuran-9b-yl)-2-oxo-2-(3,4,5-trimethoxyphenyl)acetamide]	< 10	> 10	> 10	< 0.1	< 0.1	< 10	> 10	> 10
Cc1cccc(C)c1NC(=O)C(=O)NC12C(=O)c3ccccc3C1(O)Oc1cc(C(C)C)ccc12 (stereo not drawn) [Example 20, N1-(2,6-dimethylphenyl)-N2-(4b-hydroxy-7-isopropyl-10-oxo-4b, 10-dihydro-9bH-indeno[1,2-b]benzofuran-9b-yl)oxal amide]	< 10	> 10	> 10	< 0.1	< 0.1	< 10	> 10	> 10
CC(C)c1ccc2c(c1)OC1(O)c3c(cccc3[N+](=O)[O-])C(=O)C21NC(=O)C(=O)N(C)C (stereo not drawn) [Example 30, N1-(4b-hydroxy-7-isopropyl-4-nitro-10-oxo-4b, 10-dihydro-9bH-indeno[1,2-b]benzofuran-9b-yl)-N2-N2-dimethyl oxal amide]	> 10	> 10	> 10	< 10	< 10	> 10	> 10	> 10
CC(C)c1ccc2c(c1)OC1(O)c3ccccc3C(=O)C21NC(=O)CCC(=O)N(C)C (stereo not drawn) [Example 44, N1-(4b-hydroxy-7-isopropyl-10-oxo-4b, 10-dihydro-9bH-indeno[1,2-b]benzofuran-9b-yl)-N4, N4-dimethyl succinamide]	–	–	–	< 0.1	< 0.1	< 10	–	> 10
CC(C)c1ccc2c(c1)OC1(O)c3ccccc3C(=O)C21NC(=O)C(=O)CBr (stereo not drawn) [Example 41, 3-bromo-N-(4b-hydroxy-7-isopropyl-10-oxo-4b, 10-dihydro-9bH-indeno[1,2-b]benzofuran-9b-yl)-2-oxo propanamide]	< 10	> 10	> 10	< 0.1	< 0.1	> 10	> 10	> 10
CC(C)NC(=O)CCC(=O)NC12C(=O)c3ccccc3C1(O)Oc1cc(C(C)C)ccc12 (stereo not drawn) [Example 45, N1-(4b-hydroxy-7-isopropyl-10-oxo-4b, 10-dihydro-9bH-indeno[1,2-b]benzofuran-9b-yl)-N4-isopropyl succinamide]	–	–	–	< 0.1	< 0.1	< 10	> 10	> 10
